Results on three compounds are retold here after patent US7645802B2 (Biovail Laboratories International SRL., priority 2005, dated 2010).

Entries after “also recorded” stand apart in the source; their conditions may differ. Where a name gives a salt, the structure may show the parent alone. Read-outs that look alike come from different tables or passages of the source. Marks after values point to notes of the source that are not given here.

Data set [1] is described as follows: forced degradation stability study of bupropion salts in vials, 40 degrees C./75% RH, HPLC assay and impurities. Conditions: for order of stability (assay, % potency): salt plus excipients, 20 days, 40 degrees C./75% RH.
A short description of data set [2]: forced degradation of bupropion HBr and HCl in the presence of excipients at 55° C., 55° C./100% RH, 100° C., 105° C. (incl. TGA at 100° C.). Conditions: TGA experiment at 100° C. It counts as physicochemical.
Protocol: Further forced degradation studies were carried out at 55° C., at 55° C. and 100% relative humidity, at 100° C., and at 105° C. on both the HCl and HBr Bupropion salts in the presence of excipients. […] FIG. 53 is a graph showing the loss of each salt over time in a TGA experiment at 100° C.
For a further data set, the system named is rat. The note with it: for NUMBER OF ANIMALS WITH SEIZURE ACTIVITY / DURATION OF INITIAL SEIZURE CORTEX mean ± s.e.m. / DURATION OF INITIAL SEIZURE HIPPOCAMPUS mean ± s.e.m.: 100 mg/kg i.p., long seizure activity; for NUMBER OF ANIMALS WITH SEIZURE ACTIVITY: 10 rats per group, HBr dose in HCl molar equivalent.
Another data set has as its system mice. As to the kind of experiment: Proconvulsant properties of bupropion salts: clonic convulsions in mice. The note with it: for Mean Number of Convulsions/Mouse / Total Number of convulsions: N=13. The protocol: Number of convulsions and the intensity of the convulsions were recorded.
Mild: Head and tail slightly extended and little jerking; Moderate: Head and tail fully extended with some jerking; Severe: Head and tail fully extended with strong jerking. […] Step 2: To further investigate the patterns of convulsion occurrence using loglinear Poisson regression models. The number of convulsions was analyzed using the loglinear Poisson regression models with formulation, dose, and severity as predictors.

The subject of data set [3] is CD-1 mice. As to the kind of experiment: clonic convulsions in CD-1 mice after intraperitoneal dosing (range finding and main study). How it is done: Two studies were performed to investigate the relative proconvulsant properties of the two bupropion salts. In the first instance a range finding study was performed to establish the appropriate dose range for the main study. In each study the mice were divided into two dose groups and injected intraperitoneally with either bupropion HCl or bupropion HBr.
A clonic convulsion was defined as a stiffening of the animal followed by jerking movements. The convulsions were classified as mild, moderate and severe according to the following descriptions.
Mild: Head and tail slightly extended and little jerking
Moderate: Head and tail fully extended with some jerking
Severe: Head and tail fully extended with strong jerking
Post-treatment findings recorded included continuous observation for 120 minutes for evidence of clonic convulsions, and intermittent (fixed) observations for 24 hours for other signs, including tonic convulsions, movement, activity, paralysis, gait and evidence of recovery.

In data set [4] the test system is CD-1 mice. As to the kind of experiment: cortical EEG and behaviour in mice at convulsive and non-convulsive doses. The note with it: 150 mg/kg i.p.; for seizure-like behavioural activity over time, second study pair: time after injection. The protocol:
Test system: 30 healthy female mice, of strain CD-1, having a bodyweight of 25-29 g, were acclimatized for a minimum period of 4 days and used for this study. Each animal, after allocation to groups, was identified by markings on the dorsal surface of the tail. Environmental conditions included a temperature of 22±3° C., and artificial lighting of 12 hours light/dark cycle. Routine activities such as cleaning, feeding and watering were performed according to the RCSl's current SOPS.
The diluent used was 0.9% sodium chloride solution. Storage temperature was at about 25° C.
Test Item Administration: The test item was administered intraperitoneally using a disposable syringe with a 1 ml syringe and 26 g needle. The route of administration was intraperitoneal.
Protocol: Habituated mice were anesthetized with isofolurane, placed in a stereotaxic frame and maintained normothermic (36-37° C.) by means of a feedback-controlled mouse-designed homeothermic blanket (Harvard Apparatus). Under isoflurane anaesthesia, a midline skill incision was made over the skull and the skull exposed. Three partial craniectomies were performed: one overlying each temporal lobe and a third across the region overlying frontal cortex. Mouse-sized cranial EEG (E363/20, electrode with mounting screw and socket, Plastics One Inc) were affixed at each point. The electrode assembly was affixed to the skull with dental cement and then anaesthesia discontinued and the animal placed in the recording chamber for 30-60 minutes after recovery. Electrodes were then connected to a multichannel 363 Connector Cable system with SL6C 6 channel swivel commutator and baseline EEG recordings commenced using a Grass model Comet Portable 40-channel Digital EEG & Review System with Twin digital EEG in tandem with continuous digital video. […] Mice were run in parallel so that a hydrochloride mouse was injected within minutes of a hydrobromide mouse and recordings made simultaneously. Video-EEG was recorded for a period of one (1) hour. Afterwards, mice were returned to cages and then euthanized at 24 h and brains harvested.
Analysis: The duration of type IV polyspike high frequency (>1 Hz) high amplitude (>2× baseline) was determined for each mouse over the 1 h recording period.

Setting [5] is: spiked with IPA/EtOH, closed vials, 32 days.
[6] abbreviates: 150 mg/kg, Moderate, hydrochloride.
[7] abbreviates: 150 mg/kg, Severe, hydrochloride.
Setting [8] is: 100 mg/kg i.p., pooled data N = 13/dose group, hydrochloride.
Where [9] appears, read: 150 mg/kg i.p., pooled data N = 13/dose group, hydrochloride.

With `Br.CC(NC(C)(C)C)C(=O)c1cccc(Cl)c1` (stereo not shown) [bupropion hydrobromide], in data set [1], the “In water, 852U77: order of impurity content” value is recorded as “fumarate > HBr > maleate > HCl” and the “In water, Total imp.: order of impurity content” value was “fumarate > HBr > HCl > tosylate > maleate”. For the same compound, the “order of stability (assay, % potency)” value in data set [1] (closed vials) was “HBr>HCl≈tosylate>fumarate>maleate”. Moreover, in data set [1] (setting [5]), the “In IPA/EtOH, 3-CBZ: order of impurity content” value is given as “maleate > HBr > HCl > Fumarate”; the “In IPA/EtOH, 852U77: order of impurity content” value is “fumarate > HBr ≈HCl ≈maleate ≈tosylate”; the “In IPA/EtOH, Total imp.: order of impurity content” value is reported as “fumarate > maleate > HBr > HCl > tosylate”. Besides, the “In water, 3-CBZ: order of impurity content” value in data set [1] (spiked with water, closed vials, 32 days) is “HCl > HBr≈maleate≈fumarate”. For the same compound, the “disproportionation of the salt at elevated temperatures (TGA, loss of API)” value in data set [2] is “did not occur”. For the same compound, in the data set on rat, the “NUMBER OF ANIMALS WITH SEIZURE ACTIVITY” value was 4*, the “DURATION OF INITIAL SEIZURE CORTEX mean ± s.e.m.” value is on record as 31 ± 6 and the “DURATION OF INITIAL SEIZURE HIPPOCAMPUS mean ± s.e.m.” value was determined as 23 ± 2. Moreover, the dead result with rat (in vivo, ip, 100 mg/kg) was “#dead (1/10)”. The “Mean Number of Convulsions/Mouse, cumulative” value with mice (100 mg/kg, All) is reported as 0.77. Further, the “reduction in the number of convulsant mice versus HCl salt” value in the data set on CD-1 mice [3] ([…] dose level, pooled data) is 15.4%. The “duration of convulsive behavior, hydrobromide versus hydrochloride” value with CD-1 mice [4] (study pairs 1, 2 and 3) is listed as “lasted longer than the hydrochloride-treated mouse”. In addition, the “seizure-like behavioural activity over time, second study pair” value in the data set with CD-1 mice [4] was “still observing rearing and falling, forepaw running and turning in the hydrobromide-treated mouse at 60 minutes”.
In the case of `CC(NC(C)(C)C)C(=O)c1cccc(Cl)c1.Cl` (racemic) [bupropion hydrochloride, (±)-1-(3-chlorophenyl)-2-[(1,1-dimethylethyl)amino]-1-propanone hydrochloride], in data set [1], the “In IPA/EtOH, 3-CBZ: order of impurity content” value is “maleate > HBr > HCl > Fumarate”; the “In IPA/EtOH, 852U77: order of impurity content” value is recorded as “fumarate > HBr ≈HCl ≈maleate ≈tosylate”; the “In IPA/EtOH, Total imp.: order of impurity content” value is recorded as “fumarate > maleate > HBr > HCl > tosylate”; the “In water, 3-CBZ: order of impurity content” value is “HCl > HBr≈maleate≈fumarate”. Moreover, in data set [1], the “In water, 852U77: order of impurity content” value is reported as “fumarate > HBr > maleate > HCl” and the “In water, Total imp.: order of impurity content” value is reported as “fumarate > HBr > HCl > tosylate > maleate”. The “order of stability (assay, % potency)” value in data set [1] (closed vials) was “HBr>HCl≈tosylate>fumarate>maleate”. The “disproportionation of the salt at elevated temperatures (TGA, loss of API)” value in data set [2] is “disproportionation of the HCl salt occurs with concomitant loss of gaseous HCl”. Besides, in the data set with rat, the “NUMBER OF ANIMALS WITH SEIZURE ACTIVITY” value was 10, the “DURATION OF INITIAL SEIZURE CORTEX mean ± s.e.m.” value worked out at 33 ± 3 and the “DURATION OF INITIAL SEIZURE HIPPOCAMPUS mean ± s.e.m.” value is 25 ± 4. Moreover, the “Mean Number of Convulsions/Mouse, cumulative” value in the data set on mice (100 mg/kg, All) is 0.23. The “odds of number of convulsions vs the bupropion hydrobromide group” value in the data set on mice (loglinear Poisson regression, adjusted for dose and severity) came to 1.41. In the data set on CD-1 mice [3] (CD-1 mice), the “severity of seizure activity in the initial behavioral study” value is “more severe”. In the data set with CD-1 mice [4] (n=4 per salt, cortical electrodes, 1 h, listed as HCl, hydrochloride), the “seizure EEG” value is on record as “no seizure EEG; also recorded: two very brief EEG bursts; also recorded: brief burst of seizure”. For the same compound, the “seizure-like behavioural activity over time, second study pair” value in the data set with CD-1 mice [4] is on record as “about 30 mins”.
As for `CC(NC(C)(C)C)C(=O)c1cccc(Cl)c1` (stereo not shown) [Bupropion HCl, bupropion hydrochloride], the “Mean Number of Convulsions/Mouse, cumulative” value in the data set with mice (100 mg/kg, All, hydrochloride) is 0.23; in the data set with mice (100 mg/kg, Severe + Moderate, hydrochloride), 0.23; with mice (150 mg/kg, All, hydrochloride), 71.00; in the data set with mice (150 mg/kg, Severe + Moderate, hydrochloride) it was 64.77. In addition, the “Mean Number of Convulsions/Mouse” value in the data set with mice (100 mg/kg, Mild, hydrochloride) was found to be 0.0; with mice (100 mg/kg, Moderate), 0.08; in the data set on mice (100 mg/kg, Severe, 120 min observation, hydrochloride), 0.15; with mice (150 mg/kg, Mild, hydrochloride), 6.23; in the data set with mice (setting [6]), 8.69; with mice (setting [7]) it was 56.08. Further, the “Mean Number of Convulsions/Mouse” value is reported as 0 with CD-1 mice [3] (75 mg/kg i.p. (as Bupropion HCl, HBr equimolar), range-finding study, N = 3/dose group); 0.2 in the data set on CD-1 mice [3] (setting [8]); 1.0 in the data set with CD-1 mice [3] (100 mg/kg i.p., range-finding study, N = 3/dose group, hydrochloride); 0 in the data set on CD-1 mice [3] (100 mg/kg i.p., second (main) study, N = 10/dose group, hydrochloride); 71.0 in the data set with CD-1 mice [3] (setting [9]); 32.0 in the data set with CD-1 mice [3] (150 mg/kg i.p., range-finding study, N = 3/dose group, hydrochloride). In the data set with CD-1 mice [3] (150 mg/kg i.p., second (main) study, N = 10/dose group, hydrochloride), the “Mean Number of Convulsions/Mouse” value worked out at 82.7. Besides, the “Total Number of convulsions” value is 0 in the data set on mice (100 mg/kg, Mild, hydrochloride); 1 in the data set with mice (100 mg/kg, Moderate); 2 with mice (100 mg/kg, Severe, hydrochloride); 81 in the data set with mice (150 mg/kg, Mild, hydrochloride); 113 in the data set on mice (setting [6]); 729 in the data set with mice (setting [7]). For the same compound, the “Mean Intensity of Convulsions/Mouse % of Total: Mild” value in the data set on CD-1 mice [3] (setting [8]) is on record as 0.0 % of Total; with CD-1 mice [3] (setting [9]) it was 8.8 % of Total. The “Mean Intensity of Convulsions/Mouse % of Total: Moderate” value was 33.3 % of Total in the data set on CD-1 mice [3] (setting [8]) and 12.2 % of Total in the data set on CD-1 mice [3] (setting [9]). Moreover, the “Mean Intensity of Convulsions/Mouse % of Total: Severe” value in the data set with CD-1 mice [3] (setting [8]) was 66.7 % of Total; in the data set with CD-1 mice [3] (setting [9]), 79.0 % of Total. Also, the “numbers of mice that had convulsions in the dose group” value with CD-1 mice [3] (setting [8]) is 2/13; in the data set with CD-1 mice [3] (100 mg/kg i.p., range-finding study, N = 3/dose group) it was 2/3; with CD-1 mice [3] (150 mg/kg i.p., pooled data N = 13/dose group) it was 13/13; with CD-1 mice [3] (150 mg/kg i.p., range-finding study, N = 3/dose group), 3/3; in the data set on CD-1 mice [3] (150 mg/kg i.p., second (main) study, N = 10/dose group) it was 10/10; in the data set on CD-1 mice [3] ([…] i.p., pooled data N = 13/dose group, hydrochloride) it was 13/13. Also, the “numbers of mice that had convulsions in the dose group” value is reported as 3/3 in the data set with CD-1 mice [3] ([…] i.p., range-finding study, N = 3/dose group) and 10/10 in the data set on CD-1 mice [3] ([…] i.p., second (main) study, N = 10/dose group, hydrochloride). Besides, the “threshold for tonic convulsions” value with CD-1 mice [3] (range finding study, i.p., hydrochloride) is 100 mg/kg.
